Measurements taken from patent publication US9708251B2, “Unsaturated fatty alcohol alkoxylates from natural oil metathesis” (Stepan Company, priority 2012, dated 2017).
One block for each compound: values may come before it.

Columns and labels:
[1] = Surfactant phase behavior study (cross-polarized microscopy); type: physicochemical; conditions: room temperature
Description: Phase behavior is observed using an Olympus BH-2 cross-polarized microscope at 100-400× and room temperature (20° C. to 22° C.). The inventive monounsaturated alcohol ethoxylates are compared with their saturated analogs.
Samples are prepared by diluting the most concentrated product gradually with deionized water. When the surfactant concentration approaches a phase transition, the concentration is varied at 2-4% intervals to estimate the phase boundary. The actives level reported in Table 4 for each phase boundary is within ±5% of the true boundary.
Samples are loaded between a microscope slide and cover glass and are allowed to equilibrate before observation. Microscopic texture is analyzed and used to determine the phase. For some samples, an AR 2000 rheometer (TA Instruments) is used to measure viscosity at 25° C. to further verify phase behavior.

[2] = Emulsion stability testing of nonionic emulsifiers, Hallcomid solvent series; type: physicochemical; design: key: C = creamy; CO = creamy oil; O = oil; GC = gritty cream; NS = no separation; OC = oily cream; conditions: Bifenthrin 240 g/L in Hallcomid M-8-10, 34 ppm water
Description: (§1) Nonionic samples contain a low amount of water (<1%) and are prepared as emulsifiable concentrates with three pesticides using two different solvent systems. In the aromatic solvent series, the nonionic sample replaces Toximul® 8240 (castor oil ethoxylate, 36 POE, Stepan), and in the Hallcomid™ (N,N-dimethylcaprylamide/N,N-dimethylcapramide, Stepan) solvent series, the nonionic sample replaces Ninex® MT-630F.
(§2) Hallcomid Solvent Series.
(§3) Sample preparation: The surfactants are combined and stirred until homogeneous, with the nonionic sample melted if needed prior to combination. Controls 1-3 are made by using Ninex MT-630F in the amounts indicated instead of the nonionic sample.
(§4) Emulsion Stability Testing
(§5) A Mohr pipette is used to feed pesticide/surfactant concentrates to each cylinder.

[3] = as above; type: physicochemical; design: key to 24 h separation, appearance / 1 h separation, appearance / 1 h separation, amount: C = creamy; CO = creamy oil; O = oil; GC = gritty cream; NS = no separation; OC = oily cream; key to Spon. (spontaneity): G = good; F = fair; P = poor
Description: as §1, §2, §3, §4, §5

[4] = Emulsion stability testing of nonionic emulsifiers, aromatic solvent series; type: physicochemical; design: key to 24 h separation, appearance / 1 h separation, appearance / 1 h separation, amount: C = creamy; CO = creamy oil; O = oil; GC = gritty cream; NS = no separation; OC = oily cream; key to Spon. (spontaneity): G = good; F = fair; P = poor
Description: as §1
Sample preparation: Ninate® 60E (calcium alkylbenzenesulfonate, Stepan) and the test sample are stirred until homogeneous. […] Controls 1-3 are made by using Toximul 8240 in the amounts indicated instead of the nonionic sample.
Formulations: • 1. Bifenthrin, 240 g/L (2.99 g), Aromatic 100 (ExxonMobil, 8.05 g), Ninate 60E (0.38 g), and nonionic sample or Toximul 8240 (0.58 g). • 2. 2,4-D ester, 480 g/L (8.90 g), Exxsol® D-110 (ExxonMobil, 2.50 g), Ninate 60E (0.36 g), and nonionic sample or Toximul 8240 (0.24 g). • 3. Tebuconazole, 360 g/L (4.45 g), N-methyl-2-pyrrolidone (6.35 g), Ninate 60E (0.48 g), nonionic sample or Toximul 8240 (0.72 g).
as §4, §5

[5] = Agrichemical solvent analysis: active solubility; type: physicochemical; conditions: room temperature
Description: Solvency strength of potential agrichemical solvents is evaluated by identifying the solubility level of three standard pesticides in the solvent by weight percent: 2,4-D acid, imidacloprid, and tebuconazole. […] The active material is also accurately weighed before addition. Initial amounts of active material are approximately: 2,4-D: 0.3 g; imidacloprid: 0.02 g; tebuconazole: 0.3 g. Solvent and pesticide active are combined, allowed to mix for 1 h at room temperature, and then inspected for the presence of undissolved active material. Additional active material is added in appropriately small increments until it no longer dissolves completely. This mixture is then stirred for 24 h at room temperature, and if the active has completely dissolved, additional active ingredient is added and the mixture is stirred another 24 h at room temperature. The percent solubility is recorded, and performance is compared with that of a standard agricultural solvent.

[6] = 0.4 wt. % active, 342 ppm hard water
Description: Surfactant solution (100 mL) is carefully transferred to a stainless-steel mixing cup, then mixed at high speed (27K rpm) using a Hamilton Beach mixer for 10 s. The contents are quickly poured into a 100-mL graduated cylinder to the 100-mL mark, and a stopwatch is immediately started. The amount of liquid settling in the cylinder is recorded every 15 s for 4 min. Less liquid drained indicates greater foam stability.

[7] = 2,4-D diester 480 g/L in Hallcomid M-8-10, 34 ppm water
[8] = 2,4-D diester 480 g/L in Hallcomid M-8-10, 1000 ppm water
[9] = Bifenthrin 240 g/L in Hallcomid M-8-10, 34 ppm water
[10] = Bifenthrin 240 g/L in Hallcomid M-8-10, 1000 ppm water
[11] = Tebuconazole 360 g/L in Hallcomid M-8-10, 34 ppm water
[12] = Tebuconazole 360 g/L in Hallcomid M-8-10, 1000 ppm water
[13] = 2,4-D ester 480 g/L in Exxsol D-110, 34 ppm water
[14] = 2,4-D ester 480 g/L in Exxsol D-110, 1000 ppm water
[15] = Bifenthrin 240 g/L in Aromatic 100, 34 ppm water
[16] = Bifenthrin 240 g/L in Aromatic 100, 1000 ppm water
[17] = Tebuconazole 360 g/L in N-methyl-2-pyrrolidone, 34 ppm water
[18] = Tebuconazole 360 g/L in N-methyl-2-pyrrolidone, 1000 ppm water

Compound: CCCCCCCCCCOCCOCCOCCOCCOCCOCCOCCO [sat. analog of A10-13]
Lamellar phase region ([1]; in deionized water): 43-60 % Actives Level

Compound: C=CCCCCCCCCOCCO [A10-4]
24 h separation, amount [2]: NS | 1 h separation, amount [3, 7]: 6 mL | 1 h separation, appearance [3, 7]: C | 24 h separation, amount [3, 7]: 9.5 mL | 24 h separation, appearance [3, 7]: C | Spon. (spontaneity) [3, 7]: F | 1 h separation, amount [3, 8]: 6.5 mL | 1 h separation, appearance [3, 8]: C | 24 h separation, amount [3, 8]: 8 mL | 24 h separation, appearance [3, 8]: C | Spon. (spontaneity) [3, 8]: F | 1 h separation, amount [3, 9]: NS | Spon. (spontaneity) [3, 9]: F | 1 h separation, amount [3, 10]: Tr. GC, 12 C | 24 h separation, amount [3, 10]: 3.5 O, 3 CO | Spon. (spontaneity) [3, 10]: F | 1 h separation, amount [3, 11]: 3 mL | 1 h separation, appearance [3, 11]: C | 24 h separation, amount [3, 11]: 6.5 mL | 24 h separation, appearance [3, 11]: C | Spon. (spontaneity) [3, 11]: F | 1 h separation, amount [3, 12]: 4 mL | 1 h separation, appearance [3, 12]: C | 24 h separation, amount [3, 12]: 5.8 mL | 24 h separation, appearance [3, 12]: C | Spon. (spontaneity) [3, 12]: F | 1 h separation, amount [4, 13]: 4.5 mL | 1 h separation, appearance [4, 13]: CO | 24 h separation, amount [4, 13]: 2 O, 1 CO, 2 C | Spon. (spontaneity) [4, 13]: P | 1 h separation, amount [4, 14]: 3.8 mL | 1 h separation, appearance [4, 14]: O | 24 h separation, amount [4, 14]: 4 mL | 24 h separation, appearance [4, 14]: O | Spon. (spontaneity) [4, 14]: P | 1 h separation, amount [4, 15]: 7.5 mL | 1 h separation, appearance [4, 15]: CO | 24 h separation, amount [4, 15]: 3 O, 3 CO | Spon. (spontaneity) [4, 15]: P | 1 h separation, amount [4, 16]: 6 mL | 1 h separation, appearance [4, 16]: O | 24 h separation, amount [4, 16]: 6 mL | 24 h separation, appearance [4, 16]: O | Spon. (spontaneity) [4, 16]: P | 1 h separation, amount [4, 17]: 2 mL | 1 h separation, appearance [4, 17]: GC | 24 h separation, amount [4, 17]: 3 mL | 24 h separation, appearance [4, 17]: GC | Spon. (spontaneity) [4, 17]: P | 1 h separation, amount [4, 18]: 3 mL | 1 h separation, appearance [4, 18]: GC | 24 h separation, amount [4, 18]: 4 mL | 24 h separation, appearance [4, 18]: GC | Spon. (spontaneity) [4, 18]: P

Compound: CCCCCCCCCCOCCOCCOCCO [sat. analog of A10-7]
combined isotropic phases (clear and opaque), share of the total [1]: about 38% | Isotropic Clear phase region ([1]; in deionized water): 90-100 % Actives Level | Isotropic Opaque phase region ([1]; in deionized water): 0-28 % Actives Level | Lamellar phase region ([1]; in deionized water): 28-90 % Actives Level

Compound: CCCCCCCCCC(=O)N(C)C [N,N-dimethylcapramide, reference compound]
solubility of 2,4-D Acid in the solvent [5]: 45.4 weight percent | solubility of Imidacloprid in the solvent [5]: 4.2 weight percent | solubility of Tebuconazole in the solvent [5]: 38.8 weight percent

Compound: CCCCCCCCCCOCCOCCOCCOCCOCCO [sat. analog of A10-10]
Lamellar phase region ([1]; in deionized water): 55-80 % Actives Level

Compound: ammonium alkyl ether sulfate [Control 3, reference compound]
Liquid volume at drain time 0.5 min [6]: 0.25 mL | Liquid volume at drain time 1.0 min [6]: 1.00 mL | Liquid volume at drain time 1.5 min [6]: 2.00 mL | Liquid volume at drain time 2.0 min [6]: 3.00 mL | Liquid volume at drain time 2.5 min [6]: 4.00 mL | Liquid volume at drain time 3.0 min [6]: 5.25 mL | Liquid volume at drain time 3.5 min [6]: 6.50 mL | Liquid volume at drain time 4.0 min [6]: 7.50 mL

Compound: CCCCCCCCCCOCCOCCOCCOCCOCCOCCOCCOCCOCCOCCOCCOCCOCCOCCOCCO [sat. analog of A10-16]
Cubic phase region ([1]; in deionized water): 37-55 % Actives Level | Paste phase region ([1]; in deionized water): 93-100 % Actives Level

Compound: CN1CCCC1=O [N-methyl-2-pyrrolidone, reference compound]
solubility of 2,4-D Acid in the solvent [5]: 39.5 weight percent | solubility of Imidacloprid in the solvent [5]: 29.3 weight percent | solubility of Tebuconazole in the solvent [5]: 62.2 weight percent

Compound: CCC=CCCCCCCCCOCCO (mixture of isomers) [A12-4]
24 h separation, amount [2]: NS | 1 h separation, amount [3, 7]: 6.2 mL | 1 h separation, appearance [3, 7]: C | 24 h separation, amount [3, 7]: 8.8 mL | 24 h separation, appearance [3, 7]: C | Spon. (spontaneity) [3, 7]: F | 1 h separation, amount [3, 8]: 6.9 mL | 1 h separation, appearance [3, 8]: C | 24 h separation, amount [3, 8]: 8.6 mL | 24 h separation, appearance [3, 8]: C | Spon. (spontaneity) [3, 8]: F | 1 h separation, amount [3, 9]: NS | Spon. (spontaneity) [3, 9]: G | 1 h separation, amount [3, 10]: 11 mL | 1 h separation, appearance [3, 10]: C | 24 h separation, amount [3, 10]: 2 O, 3 CO | Spon. (spontaneity) [3, 10]: F | 1 h separation, amount [3, 11]: 3.1 mL | 1 h separation, appearance [3, 11]: C | 24 h separation, amount [3, 11]: 5.9 mL | 24 h separation, appearance [3, 11]: C | Spon. (spontaneity) [3, 11]: F | 1 h separation, amount [3, 12]: 3.1 mL | 1 h separation, appearance [3, 12]: C | 24 h separation, amount [3, 12]: 6 mL | 24 h separation, appearance [3, 12]: C | Spon. (spontaneity) [3, 12]: F | 1 h separation, amount [4, 13]: 6 mL | 1 h separation, appearance [4, 13]: C | 24 h separation, amount [4, 13]: 6.7 mL | 24 h separation, appearance [4, 13]: C | Spon. (spontaneity) [4, 13]: P | 1 h separation, amount [4, 14]: 4.7 mL | 1 h separation, appearance [4, 14]: O | 24 h separation, amount [4, 14]: 4.5 mL | 24 h separation, appearance [4, 14]: O | Spon. (spontaneity) [4, 14]: P | 1 h separation, amount [4, 15]: 8 mL | 1 h separation, appearance [4, 15]: C | Spon. (spontaneity) [4, 15]: P | 1 h separation, amount [4, 16]: 5.2 mL | 1 h separation, appearance [4, 16]: O | 24 h separation, amount [4, 16]: 5.2 mL | 24 h separation, appearance [4, 16]: O | Spon. (spontaneity) [4, 16]: P | 1 h separation, amount [4, 17]: 2.3 mL | 1 h separation, appearance [4, 17]: C | 24 h separation, amount [4, 17]: 2.5 mL | 24 h separation, appearance [4, 17]: GC | Spon. (spontaneity) [4, 17]: P | 1 h separation, amount [4, 18]: 2.3 mL | 1 h separation, appearance [4, 18]: C | 24 h separation, amount [4, 18]: 2.7 mL | 24 h separation, appearance [4, 18]: GC | Spon. (spontaneity) [4, 18]: P

Further lines, results first:

combined isotropic phases (clear and opaque), share of the total [1]: about 38% | Isotropic Clear phase region ([1]; in deionized water): 90-100 % Actives Level | Isotropic Opaque phase region ([1]; in deionized water): 0-28 % Actives Level | Lamellar phase region ([1]; in deionized water): 28-90 % Actives Level
Compound: CCCCCCCCCCCCOCCOCCOCCO [sat. analog of A12-7]

Hexagonal phase region ([1]; in deionized water): 30-67 % Actives Level | Lamellar phase region ([1]; in deionized water): 67-90 % Actives Level
Compound: CCCCCCCCCCCCOCCOCCOCCOCCOCCOCCOCCO [sat. analog of A12-13]

Cubic phase region ([1]; in deionized water): 28-50 % Actives Level | Hexagonal phase region ([1]; in deionized water): 50-73 % Actives Level | Paste phase region ([1]; in deionized water): 93-100 % Actives Level
Compound: CCCCCCCCCCCCOCCOCCOCCOCCOCCOCCOCCOCCOCCOCCOCCOCCOCCOCCOCCO [sat. analog of A12-16]

Lamellar phase region ([1]; in deionized water): 40-83 % Actives Level | Lamellar/Isotropic phase region ([1]; in deionized water): 30-40 % Actives Level
Compound: CCCCCCCCCCCCOCCOCCOCCOCCOCCO [sat. analog of A12-10]
